Results published in PubChem BioAssay (NCI).
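These data come from cells grown in 96-well plates and exposed to compound for 48 hours at five concentrations. The concentration for 50% growth inhibition is given as GI50. TGI is the concentration that stops growth completely.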

Columns and labels:
Test in all cases: NCI anticancer screen, dose series, 48 h
U251 CNS = test system: U251 CNS
OVCAR-3 ovarian = test system: OVCAR-3 ovarian
SK-MEL-5 melanoma = test system: SK-MEL-5 melanoma
CAKI-1 renal = test system: CAKI-1 renal
EKVX NSCLC = test system: EKVX NSCLC
KM20L2 colon = test system: KM20L2 colon
NCI-H460 lung = test system: NCI-H460 lung
LOX IMVI melanoma = test system: LOX IMVI melanoma
HOP-92 NSCLC = test system: HOP-92 NSCLC
A549 NSCLC = test system: A549 NSCLC
RPMI-8226 leukemia = test system: RPMI-8226 leukemia
NCI-H226 lung = test system: NCI-H226 lung
HOP-62 NSCLC = test system: HOP-62 NSCLC
786-0 renal = test system: 786-0 renal
HCC-2998 colon = test system: HCC-2998 colon
SK-MEL-28 melanoma = test system: SK-MEL-28 melanoma
HCT-116 colon = test system: HCT-116 colon
UACC-257 melanoma = test system: UACC-257 melanoma
MOLT-4 leukemia = test system: MOLT-4 leukemia
SNB-75 CNS = test system: SNB-75 CNS
SNB-19 CNS = test system: SNB-19 CNS
ACHN renal = test system: ACHN renal
SK-MEL-2 melanoma = test system: SK-MEL-2 melanoma
NCI-H522 lung = test system: NCI-H522 lung
K-562 leukemia = test system: K-562 leukemia
IGROV1 ovarian = test system: IGROV1 ovarian
HT29 colon = test system: HT29 colon
OVCAR-8 ovarian = test system: OVCAR-8 ovarian
SF-539 CNS = test system: SF-539 CNS
A498 renal = test system: A498 renal
OVCAR-5 ovarian = test system: OVCAR-5 ovarian
OVCAR-4 ovarian = test system: OVCAR-4 ovarian
NCI-H23 lung = test system: NCI-H23 lung
SN12C renal = test system: SN12C renal
SK-OV-3 ovarian = test system: SK-OV-3 ovarian
TK-10 renal = test system: TK-10 renal
UACC-62 melanoma = test system: UACC-62 melanoma
M14 melanoma = test system: M14 melanoma
COLO 205 colon = test system: COLO 205 colon
KM12 colon = test system: KM12 colon
MALME-3M melanoma = test system: MALME-3M melanoma
SF-295 CNS = test system: SF-295 CNS
RXF 393 renal = test system: RXF 393 renal
SF-268 CNS = test system: SF-268 CNS
SW-620 colon = test system: SW-620 colon
UO-31 renal = test system: UO-31 renal
HL-60(TB) leukemia = test system: HL-60(TB) leukemia

## O=C(/C=C(\[O-])c1ccccc1)CCCCCCC(=O)/C=C(\[O-])c1ccccc1.O=C(/C=C(\[O-])c1ccccc1)CCCCCCC(=O)/C=C(\[O-])c1ccccc1.O=C(/C=C(\[O-])c1ccccc1)CCCCCCC(=O)/C=C(\[O-])c1ccccc1.[Y+3].[Y+3]
U251 CNS
  GI50: 25.7 µM
  TGI: > 50 µM
OVCAR-3 ovarian
  GI50: > 50 µM
  TGI: > 50 µM
SK-MEL-5 melanoma
  GI50: 34.8 µM
  TGI: > 50 µM
CAKI-1 renal
  GI50: > 50 µM
  TGI: > 50 µM
EKVX NSCLC
  GI50: > 50 µM
  TGI: > 50 µM
KM20L2 colon
  GI50: > 50 µM
  TGI: > 50 µM
NCI-H460 lung
  GI50: > 50 µM
  TGI: > 50 µM
LOX IMVI melanoma
  GI50: > 50 µM
  TGI: > 50 µM
HOP-92 NSCLC
  GI50: 17 µM
  TGI: > 50 µM
A549 NSCLC
  GI50: > 50 µM
  TGI: > 50 µM
RPMI-8226 leukemia
  GI50: 44.8 µM
  TGI: > 50 µM
NCI-H226 lung
  GI50: 39.2 µM
  TGI: > 50 µM
HOP-62 NSCLC
  GI50: 18.8 µM
  TGI: > 50 µM
786-0 renal
  GI50: 21.7 µM
  TGI: > 50 µM
HCC-2998 colon
  GI50: > 50 µM
  TGI: > 50 µM
SK-MEL-28 melanoma
  GI50: > 50 µM
  TGI: > 50 µM
HCT-116 colon
  GI50: 14.9 µM
  TGI: > 50 µM
UACC-257 melanoma
  GI50: 17.6 µM
  TGI: > 50 µM
MOLT-4 leukemia
  GI50: 26.9 µM
  TGI: > 50 µM
SNB-75 CNS
  GI50: 8.98 µM
  TGI: 22.2 µM
SNB-19 CNS
  GI50: 19 µM
  TGI: > 50 µM
ACHN renal
  GI50: 40.3 µM
  TGI: > 50 µM
SK-MEL-2 melanoma
  GI50: > 50 µM
  TGI: > 50 µM
NCI-H522 lung
  GI50: 9.86 µM
  TGI: 37.9 µM
K-562 leukemia
  GI50: 17.7 µM
  TGI: > 50 µM
IGROV1 ovarian
  GI50: > 50 µM
  TGI: > 50 µM
HT29 colon
  GI50: > 50 µM
  TGI: > 50 µM
OVCAR-8 ovarian
  GI50: 37.4 µM
  TGI: > 50 µM
SF-539 CNS
  GI50: 31.8 µM
  TGI: > 50 µM
A498 renal
  GI50: > 50 µM
  TGI: > 50 µM
OVCAR-5 ovarian
  GI50: > 50 µM
  TGI: > 50 µM
OVCAR-4 ovarian
  GI50: 14.2 µM
  TGI: > 50 µM
NCI-H23 lung
  GI50: 13.4 µM
  TGI: > 50 µM
SN12C renal
  GI50: 47.3 µM
  TGI: > 50 µM
SK-OV-3 ovarian
  GI50: > 50 µM
  TGI: > 50 µM
TK-10 renal
  GI50: > 50 µM
  TGI: > 50 µM
UACC-62 melanoma
  GI50: 47.5 µM
  TGI: > 50 µM
M14 melanoma
  GI50: > 50 µM
  TGI: > 50 µM
COLO 205 colon
  GI50: > 50 µM
  TGI: > 50 µM
KM12 colon
  GI50: > 50 µM
  TGI: > 50 µM
MALME-3M melanoma
  GI50: > 50 µM
  TGI: > 50 µM
SF-295 CNS
  GI50: > 50 µM
  TGI: > 50 µM
RXF 393 renal
  GI50: 11 µM
  TGI: 37.4 µM
SF-268 CNS
  GI50: 41.5 µM
  TGI: > 50 µM
SW-620 colon
  GI50: > 50 µM
  TGI: > 50 µM
UO-31 renal
  GI50: > 50 µM
  TGI: > 50 µM
HL-60(TB) leukemia
  GI50: 14 µM
  TGI: > 50 µM
